This is an account of results in patent US8841233B2, “Herbicidal compositions comprising 4-amino-3-chloro-5-fluoro-6-(4-chloro-2-fluoro-3-methoxyphenyl) pyridine-2-carboxylic acid or a derivative thereof and 4-hydroxyphenyl-pyruvate dioxygenase (HPPD) inhibitors” (Dow Agrosciences LLC, priority 2012, dated 2014).

Test [1] relates to DIGSA. The test can be described thus: Post-emergence foliar-applied weed control, greenhouse (Example I). The class given is in vivo, Digitaria sanguinalis (L.) Scop. From the text: (§1) Evaluation of Post-emergence Foliar-Applied Herbicidal Mixtures for Weed Control in Direct Seeded Rice
(§2) Seeds or nutlets of the desired test plant species were planted in a soil matrix prepared by mixing a loam or sandy loam soil (e.g., 28.6 percent silt, 18.8 percent clay, and 52.6 percent sand, with a pH of about 5.8 and an organic matter content of about 1.8 percent) and calcareous grit in an 80 to 20 ratio. The soil matrix was contained in plastic pots with a volume of 1 quart and a surface area of 83.6 square centimeters (cm^2). When required to ensure good germination and healthy plants, a fungicide treatment and/or other chemical or physical treatment was applied. The plants were grown for 8-22 days in a greenhouse with an approximate 14 h photoperiod which was maintained at about 29° C. during the day and 26° C. during the night. Nutrients (Peters Excel® 15-5-15 5-Ca 2-Mg and iron chelate) were applied in the irrigation solution as needed and water was added on a regular basis. Supplemental lighting was provided with overhead metal halide 1000-Watt lamps as necessary. The plants were employed for testing when they reached the first through fourth true leaf stage.
(§3) Treatments consisted of the acid or esters of 4-amino-3-chloro-5-fluoro-6-(4-chloro-2-fluoro-3-methoxy-phenyl)pyridine-2-carboxylic acid (Compound A), each formulated as an SC (suspension concentrate), and various herbicidal components alone and in combination. Forms of Compound A were applied on an acid equivalent basis.
(§4) Other herbicidal components were applied on an active ingredient basis and included 4-hydroxyphenyl pyruvate dioxygenase (HPPD)-inhibiting herbicides mesotrione formulated as Callisto®, sulcotrione formulated as Mikado®, pyrazolynate formulated as Sunbird® 10% GR, and benzobicyclon formulated as Benzobicyclon 3.5%.
(§5) Treatment requirements were calculated based upon the rates being tested, the concentration of active ingredient or acid equivalent in the formulation, and a 12 mL application volume at a rate of 187 L/ha.
(§6) For treatments comprised of formulated compounds, measured amounts of compounds were placed individually in 25 mL glass vials and diluted in a volume of 1.25% (v/v) Agri-Dex® crop oil concentrated to obtain 12× stock solutions. […] Application solutions were prepared by adding an appropriate amount of each stock solution (e.g., 1 mL) and diluted to the appropriate final concentrations with the addition of 10 mL of an aqueous mixture of 1.25% (v/v) crop oil concentrate so that the final spray solutions contained 1.25+/−0.05% (v/v) crop oil concentrate.
(§7) For treatments comprised of formulated and technical compounds, weighed amounts of the technical materials were placed individually in 25 mL glass vials and dissolved in a volume of 97:3 v/v acetone/DMSO to obtain 12× stock solutions, and measured amounts of the formulated compounds were placed individually in 25 mL glass vials and diluted in a volume of 1.5% (v/v) crop oil concentrate or water to obtain 12× stock solutions. […] Application solutions were prepared by adding an appropriate amount of each stock solution (e.g., 1 mL) and diluted to the appropriate final concentrations with the addition of an appropriate amount of an aqueous mixture of 1.5% (v/v) crop oil concentrate so that the final spray solutions contained 1.25% (v/v) crop oil concentrate. As required, additional water and/or 97:3 v/v acetone/DMSO was added to individual application solutions so that the final acetone and DMSO concentrations of the application solutions being compared were 8.1% and 0.25%, respectively.
(§8) All stock solutions and applications solutions were visually inspected for compound compatibility prior to application. Spray solutions were applied to the plant material with an overhead Mandel track sprayer equipped with a 8002E nozzles calibrated to deliver 187 L/ha over an application area of 0.503 m^2 at a spray height of 18 to 20 inches (46 to 50 cm) above average plant canopy height. […]

The test system of test [2] is SCPJU. The test is described as above. The class given is in vivo, Schoenoplectus juncoides (Roxb.) Palla.
Description: as §1, §2, §3, §4, §5, §6, §7, §8

The test system of test [3] is BRAPP. The test is described as above. The class given is in vivo.
Description: as §1, §2, §3, §4, §5, §6, §7, §8

The subject of test [4] is ECHCO. The test is described as above. The class given is in vivo, Echinochloa colona (L.) Link.
Description: as §1, §2, §3, §4, §5, §6, §7, §8

For test [5], the system named is IPOHE. The test is described as above. The class given is in vivo, Ipomoea hederacea Jacq.
Description: as §1, §2, §3, §4, §5, §6, §7, §8

Test [6] relates to ECHOR. The test can be described thus: In-water applied weed control, transplanted paddy rice, greenhouse (Example II). The class given is in vivo, Echinochloa oryzoides (Ard.) Fritsch. As to the method:
(§9) Evaluation of in-Water Applied Herbicidal Mixtures for Weed Control in Transplanted Paddy Rice
(§10) Weed seeds or nutlets of the desired test plant species were planted in puddled soil (mud) prepared by mixing a shredded, non-sterilized mineral soil (50.5 percent silt, 25.5 percent clay, and 24 percent sand, with a pH of about 7.6 and an organic matter content of about 2.9 percent) and water at a 1:1 volumetric ratio. The prepared mud was dispensed in 365 mL aliquots into 16-ounce (oz.) non-perforated plastic pots with a surface area of 86.59 square centimeters (cm^2) leaving a headspace of 3 centimeters (cm) in each pot. Mud was allowed to dry overnight prior to planting or transplanting. Rice seeds were planted in Sun Gro MetroMix® 306 planting mixture, which typically has a pH of 6.0 to 6.8 and an organic matter content of about 30 percent, in plastic plug trays. Seedlings at the second or third leaf stage of growth were transplanted into 840 mL of mud contained in 32-oz. non-perforated plastic pots with a surface area of 86.59 cm^2 4 days prior to herbicide application. The paddy was created by filling the headspace of the pots with 2.5 to 3 cm of water. When required to ensure good germination and healthy plants, a fungicide treatment and/or other chemical or physical treatment was applied. The plants were grown for 4-22 days in a greenhouse with an approximate 14 h photoperiod which was maintained at about 29′C during the day and 26° C. during the night. Nutrients were added as Osmocote® (19:6:12, N:P:K+ minor nutrients) at 2 g per 16-oz. pot and 4 g per 32-oz. pot. Water was added on a regular basis to maintain the paddy flood, and supplemental lighting was provided with overhead metal halide 1000-Watt lamps as necessary. The plants were employed for testing when they reached the first through fourth true leaf stage.
(§11) Treatments consisted of the acid or esters of 4-amino-3-chloro-5-fluoro-6-(4-chloro-2-fluoro-3-methoxy-phenyl)pyridine-2-carboxylic acid (compound A) each formulated as an SC (suspension concentrate) and various herbicidal components alone and in combination. Forms of compound A were applied on an acid equivalent basis.
(§12) Other herbicidal components were applied on an active ingredient basis and included 4-hydroxyphenyl pyruvate dioxygenase (HPPD)-inhibiting herbicides mesotrione formulated as Callisto®, sulcotrione formulated as Mikado®, pyrazolynate formulated as Sunbird® 10% GR, and benzobicyclon formulated as Benzobicyclon 3.5% or technical material.
(§13) Treatment requirements for each compound or herbicidal component were calculated based upon the rates being tested, the concentration of active ingredient or acid equivalent in the formulation, an application volume of 2 mL per component per pot, and an application area of 86.59 cm^2 per pot.
(§14) For formulated compounds, a measured amount was placed in an individual 100 or 200 mL glass vial and was dissolved in a volume of 1.25% (v/v) Agri-Dex® crop oil concentrate to obtain application solutions.
(§15) For technical grade compounds, a weighed amount was placed in an individual 100 to 200 mL glass vial and was dissolved in a volume of acetone to obtain concentrated stock solutions. […] The concentrated stock solutions obtained were diluted with an equivalent volume of an aqueous mixture containing 2.5% (v/v) crop oil concentrate so that the final application solutions contained 1.25% (v/v) crop oil concentrate.
(§16) Applications were made by injecting with a pipetter appropriate amounts of the application solutions, individually and sequentially, into the aqueous layer of the paddy. Control plants were treated in the same manner with the solvent blank. Applications were made so that all treated plant material received the same concentrations of acetone and crop oil concentrate.
(§17) The treated plants and control plants were placed in a greenhouse as described above and water was added as needed to maintain a paddy flood. […]

In test [7] the test system is SCPMA. The description is as above. The class given is in vivo. Conditions: 35 gai/ha. As to the method:
as §9, §10, §11, §12, §13, §14, §15, §16, §17

The subject of test [8] is ECHCG. The test is described as above. The class given is in vivo, Echinochloa crusgalli (L.) Beauv. As for the experimental part:
as §9, §10, §11, §12, §13, §14, §15, §16, §17

The test system of test [9] is CYPIR. The test can be described thus: Post-emergence foliar-applied weed control, greenhouse (Example I). The class given is in vivo, Cyperus iria L.
Description: as §1, §2, §3, §4, §5, §6, §7, §8

Test [10] relates to FIMMI. The test can be described thus: In-water applied weed control, transplanted paddy rice, greenhouse (Example II). The class given is in vivo, Fimbristylis miliacea (L.) Vahl. Conditions: 35 gai/ha. As to the method:
as §9, §10, §11, §12, §13, §14, §15, §16, §17

Test [11] deals with ECHCG. The test can be described thus: Post-emergence foliar-applied weed control, greenhouse (Example I). The class given is in vivo, Echinochloa crusgalli (L.) Beauv.
Description: as §1, §2, §3, §4, §5, §6, §7, §8

Structures are written as SMILES.
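Wherever Visual Weed Control (%) - 20 DAA IPOHE Obs is given: visual score 0 no injury to 100 complete kill versus untreated plants.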

Take `CS(=O)(=O)c1ccc(C(=O)C2C(=O)CCCC2=O)c([N+](=O)[O-])c1` [Mesotrione, 2-[4-(methylsulfonyl)-2-nitrobenzoyl]-1,3-cyclohexanedione, reference compound]: the “Visual Weed Control (%) - 20 DAA DIGSA Obs” value in [1] (140 gaiha) is 58%. Further, the “Visual Weed Control (%) - 20 DAA SCPJU Obs” value is on record as 50% in test [2] (17.5 gai/ha) and 80% in test [2] (35 gai/ha). Besides, the “Visual Weed Control (%) - 20 DAA BRAPP Obs” value in test [3] (17.5 gai/ha) and in test [3] (35 gai/ha) was 0% each time. Moreover, the “Visual Weed Control (%) - 20 DAA ECHCO Obs” value in test [4] (17.5 gai/ha), in [4] (35 gai/ha) and in [4] (70 gai/ha) was 0% each time. The “Visual Weed Control (%) - 20 DAA IPOHE Obs” value in test [5] (35 gai/ha) amounted to 25%; in test [5] (70 gai/ha), 50%. Moreover, in [6] (140 gaiha), the “Visual Weed Control (%) - 20 DAA ECHOR Obs” value worked out at 80%. For the same compound, the “Visual Weed Control (%) -20 DAA ECHOR Obs” value in test [6] (140 gaiha) was found to be 80%. The “Visual Weed Control (%) - 21 DAA SCPMA Obs” value in [7] was 80%. Moreover, the entries for the “Visual Weed Control (%) - 20 DAA ECHCG Obs” value in [8] (35 gai/ha) and in test [8] (70 gai/ha) were 10% and 25%, respectively. Further, the “Visual Weed Control (%) - 20 DAA CYPIR Obs” value is 0% in test [9] (17.5 gai/ha) and 50% in test [9] (35 gai/ha). Besides, the “Visual Weed Control (%) - 21 DAA FIMMI Obs” value in [10] was found to be 78%.

Take `CS(=O)(=O)c1ccc(C(=O)C2C(=O)CCCC2=O)c(Cl)c1` [Sulcotrione, 2-[2-chloro-4-(methylsulfonyl)benzoyl]-1,3-cyclohexanedione, reference compound]: the “Visual Weed Control (%) - 20 DAA DIGSA Obs” value in test [1] (37.5 gai/ha) was 25%. Besides, the results for the “Visual Weed Control (%) - 20 DAA BRAPP Obs” value in [3] (37.5 gai/ha), in test [3] (75 gai/ha) and in test [3] (150 gai/ha) were 0%, 20% and 60%, respectively. The entries for the “Visual Weed Control (%) - 20 DAA ECHCO Obs” value in test [4] (37.5 gai/ha), in test [4] (75 gai/ha) and in test [4] (150 gai/ha) were 15%, 35% and 95%, respectively. Further, the “Visual Control (%) - 20 DAA IPOHE Obs” value in test [5] (37.5 gai/ha) is listed as 20%. Also, the “Visual Weed Control (%) - 20 DAA IPOHE Obs” value in [5] (37.5 gai/ha) amounted to 20%; in test [5] (75 gai/ha), 30%; in test [5] (150 gai/ha), 80%. In [6] (22.5 gai/ha), the “Visual Weed Control (%) - 20 DAA ECHOR Obs” value is listed as 10%. Besides, the “Visual Weed Control (%) - 20 DAA ECHCG Obs” value in test [8] (22.5 gai/ha) amounted to 0%; in [11] (37.5 gai/ha), 0%; in [11] (75 gai/ha), 20%; in [11] (150 gai/ha), 95%.
